“And” between values parts separate entries of the source, which are not always exact repeats. Equal entries are not always repeated. Non-standard residues stand in square brackets, D forms with d. Residues, ends and D or L forms follow the SMILES beside them.
Legend:
Format in all cases: in vivo, human
[1] = tested on: malnourished subjects with CKD; test: Phase II CKD: 24-hour urine collection, creatinine and urea clearance, GFR, PNA; settings: for Creatinine (24-hour urine): mean (SD) / Creatinine clearance: median / GFR: median / Urea (24-hour urine): mean (SD) / Urea clearance: mean (SD) / nPNA: mean (SD): ITT population
Protocol: Subjects collected 24-hour urine samples at screening, baseline (Days 0 to 1) and Days 28 to 29. All of the samples were analysed for creatinine and urea clearance (mL/min). The samples collected at baseline and on Day 28 were also analysed for proteinuria (Coumassie method), PNA, sodium, potassium, chloride, calcium and phosphate. GFR was calculated using the Cockcroft-Gault formula: […]

[2] = tested on: malnourished subjects with CKD; test: Phase II CKD: Subjective Global Assessment (SGA); settings: for SGA mild to moderately malnourished: (%) / SGA mild to moderately malnourished: n / SGA severely malnourished: (%) / SGA severely malnourished: n / SGA well nourished: (%) / SGA well nourished: n: ITT
Description: An SGA was an overall evaluation of a subject by an experienced clinician that correlated with the subjective and objective aspects of a medical history and physical examination. An SGA was completed at both the screening and baseline visits, on Day 28 and at the follow-up visit. Review of the medical history included an assessment of weight and weight change, dietary intake, gastrointestinal symptoms, disease state, and the subject's functional status. The SGA also included a physical examination for negative changes in body composition such as loss of subcutaneous fat or muscle wasting, and signs of oedema or ascites (nutrition-related). After evaluation, the subject was classified as well nourished (A), mild to moderately malnourished (B), or severely malnourished (C).

[3] = tested on: malnourished subjects with CKD; test: Phase II CKD: abnormal and clinically significant haematology values
Description: The number of subjects with abnormal and clinically significant laboratory values at baseline and at Day 28 is presented in Table 35 (haematology) and Table 36 clinical chemistry. Overall, the number of subjects with abnormal and clinically significant laboratory values was similar in the GHRH(1-29)NH2 synthetic analog and placebo groups. No clear trends were observed.

[4] = GHRH vs placebo, Day 28, ANOVA for repeated measures
[5] = Baseline, listed as GHRH(1-29)NH2 synthetic analog

CC[C@H](C)[C@H](NC(=O)[C@H](C)NC(=O)[C@H](CC(=O)O)NC(=O)[C@@H](C)NC(=O)[C@@H](N)Cc1ccc(O)cc1)C(=O)N[C@@H](Cc1ccccc1)C(=O)N[C@H](C(=O)N[C@@H](CC(N)=O)C(=O)N[C@@H](CO)C(=O)N[C@H](Cc1ccc(O)cc1)C(=O)N[C@@H](CCCNC(=N)N)C(=O)N[C@@H](CCCCN)C(=O)N[C@H](C(=O)N[C@@H](CC(C)C)C(=O)N[C@H](C)C(=O)N[C@@H](CCC(N)=O)C(=O)N[C@@H](CC(C)C)C(=O)N[C@@H](CO)C(=O)N[C@@H](C)C(=O)N[C@@H](CCCNC(=N)N)C(=O)N[C@@H](CCCCN)C(=O)N[C@@H](CCCCN)C(=O)N[C@@H](CC(C)C)C(=O)N[C@@H](CCC(N)=O)C(=O)N[C@@H](CC(=O)O)C(=O)N[C@H](C(=O)N[C@@H](CCSC)C(=O)N[C@@H](CO)C(=O)N[C@@H](CCCNC(=N)N)C(N)=O)[C@@H](C)CC)C(C)C)[C@@H](C)O [GHRH analog #5, [D-Ala^2, D-Tyr^10, D-Ala^15, Lys^22] hGHRH(1-29)-NH2] (H-Y[dA]DAIFTNS[dY]RKVL[dA]QLSARKKLQDIMSR-NH2)
Creatinine (24-hour urine): mean (SD) ([1]; Baseline): 10.44 (5.10) mmol/24 hours
Creatinine clearance: median ([1]; Baseline): 24.92 mL/min/1.73 m^−2
GFR: median ([1]; Baseline): 19.37 ml/min/1.73 m^−2
Urea (24-hour urine): mean (SD) ([1]; Baseline): 343.53 (170.39) mmol/24 hours
Urea clearance: mean (SD) ([1]; Baseline): 11.858 (5.820) mL/min/1.73 m^−2
nPNA: mean (SD) ([1]; Baseline): 2.3648 (1.1530) g/kg body weight/24 h
Mean urea clearance rate ([1]; Day 28): 11.24 mL/min/1.73 m^−2
Median GFR ([1]; Day 28): 18.23 mL/min/1.73 m^−2
Median creatinine clearance ([1]; Day 28): 23.78 mL/min/1.73 m^−2
Creatinine (24-hour urine): mean (SD) ([1]; Day 28): 9.68 (3.29) mmol/24 hours
Creatinine clearance: median ([1]; Day 28): 23.78 mL/min/1.73 m^−2
GFR: median ([1]; Day 28): 18.23 ml/min/1.73 m^−2
Urea (24-hour urine): mean (SD) ([1]; Day 28): 235.87 (88.51) mmol/24 hours
Urea clearance: mean (SD) ([1]; Day 28): 11.244 (4.200) mL/min/1.73 m^−2
nPNA: mean (SD) ([1]; Day 28): 1.6198 (0.5892) g/kg body weight/24 h
Urea clearance: adjusted difference or comparison [1, 4]: 2.28 mL/min/1.73 m^−2
nPNA: adjusted difference or comparison [1, 4]: −0.553 g/kg body weight/24 h
nPNA: mean value ([1]; after decrease (day 28)): 1.6198 g/kg body weight/24 h
Mean urea clearance rate ([1]; baseline): 11.86 mL/min/1.73 m^−2
Median GFR ([1]; baseline): 19.37 mL/min/1.73 m^−2
Median creatinine clearance ([1]; baseline): 24.92 mL/min/1.73 m^−2
nPNA: mean value ([1]; before decrease (baseline)): 2.3648 g/kg body weight/24 h
Urea clearance: adjusted mean difference between GHRH and placebo arm ([1]; day 28): 2.28 ml/min/1.73 m^2
nPNA: adjusted mean difference between GHRH and placebo arm ([1]; day 28): −0.553 g/kg body weight/24 h
GFR: improvement against baseline, one patient ([1]; one patient): 78.56%
Creatinine clearance: improvement against baseline, individual patients ([1]; two patients): 124.63% and 115.65%
Urea clearance: improvement against baseline, individual patients ([1]; two patients, listed as GHRH(1-29)NH2 synthetic analog): 123.99% and 103.49%
SGA mild to moderately malnourished: (%) ([2]; Baseline): (69.2%)
SGA mild to moderately malnourished: n ([2]; Baseline): 9
SGA severely malnourished: (%) ([2]; Baseline): (7.7%)
SGA severely malnourished: n ([2]; Baseline): 1
SGA well nourished: (%) ([2]; Baseline): (23.1%)
SGA well nourished: n ([2]; Baseline): 3
SGA severely malnourished: (%) [2, 5]: 7.7%
SGA well nourished: (%) [2, 5]: 23.1%
SGA mild to moderately malnourished: (%) ([2]; Day 28): (16.7%)
SGA mild to moderately malnourished: n ([2]; Day 28): 2
SGA severely malnourished: (%) ([2]; Day 28): (8.3%)
SGA severely malnourished: n ([2]; Day 28): 1
SGA well nourished: (%) ([2]; Day 28): (75.0%)
SGA well nourished: n ([2]; Day 28): 9
SGA well nourished: (%) ([2]; Day 28, listed as GHRH(1-29)NH2 synthetic analog): 75.0%
Mild to moderate malnourished patients (of 9) who became well nourished ([2]; after 28 days of therapy): 6
Subjects with abnormal and clinically significant Basophils (%) ([3]; Baseline, safety analysis set): (0.0%)
Subjects with abnormal and clinically significant Eosinophils (%) ([3]; Baseline, safety analysis set): (0.0%)
Subjects with abnormal and clinically significant Haematocrit (%) ([3]; Baseline, safety analysis set): (7.7%)
Subjects with abnormal and clinically significant Haemoglobin (%) ([3]; Baseline, safety analysis set): (23.1%)
Subjects with abnormal and clinically significant Lymphocytes (%) ([3]; Baseline, safety analysis set): (0.0%)
Subjects with abnormal and clinically significant MCV (%) ([3]; Baseline, safety analysis set): (0.0%)
Subjects with abnormal and clinically significant Monocytes (%) ([3]; Baseline, safety analysis set): (7.7%)
Subjects with abnormal and clinically significant Neutrophils (%) ([3]; Baseline, safety analysis set): (7.7%)
Subjects with abnormal and clinically significant Platelet count (%) ([3]; Baseline, safety analysis set): (0.0%)
Subjects with abnormal and clinically significant RBC (%) ([3]; Baseline, safety analysis set): (7.7%)
Subjects with abnormal and clinically significant WBC (%) ([3]; Baseline, safety analysis set): (0.0%)
Number of subjects with abnormal and clinically significant haematocrit ([3]; Day 28): 4 subjects
Subjects with abnormal and clinically significant Basophils (%) ([3]; Day 28, safety analysis set): (0.0%)
Subjects with abnormal and clinically significant Eosinophils (%) ([3]; Day 28, safety analysis set): (0.0%)
Subjects with abnormal and clinically significant Haematocrit (%) ([3]; Day 28, safety analysis set): (33.3%)
Subjects with abnormal and clinically significant Haemoglobin (%) ([3]; Day 28, safety analysis set): (41.7%)
Subjects with abnormal and clinically significant Lymphocytes (%) ([3]; Day 28, safety analysis set): (0.0%)
Subjects with abnormal and clinically significant MCV (%) ([3]; Day 28, safety analysis set): (0.0%)
Subjects with abnormal and clinically significant Monocytes (%) ([3]; Day 28, safety analysis set): (8.3%)
